{"source": "patent US8013011B2", "about": "“Treatment and prevention of benign pigmented moles (naevi) using artemisinine and the derivatives thereof” (EPIPHARM GmbH, priority 2005, dated 2011)", "experiment": "Skin tolerability observed during the topical treatments", "type": "in vivo, human", "conditions": "described topical treatments", "source_text": "A low-risk, non-invasive preventative or therapeutic treatment of acquired nevus cell nevi or of acquired or congenital nevus cell nevi (=birthmarks) with artemisinine and derivatives thereof (dihydroartemisinine, arteether, arthemeter, artesunate semisynthetic derivatives thereof and synthetically analogous compounds) represents enormous progress in the treatment of nevus cell nevi and could drastically reduce the risk of skin cancer. The invention is thus of great significance not only medically but also socioeconomically. […] It is also remarkable that healthy tissue is not damaged and the treatment is painless and simple."}
{"smiles": "C[C@H]1[C@H](OC(=O)CCC(=O)O)O[C@@H]2O[C@@]3(C)CC[C@H]4[C@H](C)CC[C@@H]1[C@@]24OO3", "note": "[artesunate]", "values": [{"measurement": "allergic skin reactions", "result": "No allergic skin reactions"}]}
